# According to US20230029496A1, “AMINO ACID ALTERNATIVE CURING SYSTEM” (THE TEXAS A&M UNIVERSITY SYSTEM, priority 2019, published 2023):
# Values joined by “and” are separate entries in the source; they are usually repeats but may differ in a detail not shown here. Equal values may be shown once. Read-outs that look alike come from different tables or passages of the source. Marks after values point to notes of the source that are not given here.
# Columns and labels:
# [1] = pH after immersion, pre-rigor pork semimembranosus muscle (first study); type: physicochemical
# [2] = test system: Nitric Oxide Synthase (NOS) system; assay: NO-heme, total heme, nitrosylation in plastic casing test tube ground pork loin sausages (Example 10); details: for Nitrosylation / NO-Heme / Total Heme: cooked; for NO-Heme / Total Heme: ppm acid hematin
# Method: The desired cured color could not initially be generated in a variety of processed meat products in a pilot plant setting. […] Pork loins (N=2) procured from a local meat distributor (Mar. 18, 2019) were used. Eight pounds of pork loins were ground (½″ then ¼″ plate) and weighed out in one pound portions. Plastic waterproof casings (2″ diameter) were clipped at one end. One pound of ground pork loin was placed in the casing and two pounds of brine (L-arginine concentration 7498 ppm) were added and the open end of the casing clipped. Based on laboratory test tube studies, meat samples would absorb 20-25% of the solution which equates to absorption of approximately 1500 ppm of L-arginine. Each plastic casing contained the same proportion of meat and brine as conducted during previous laboratory experiments (Table 12). A control was manufactured by substituting distilled water for the L-arginine brine.
# After thermal processing the plastic casing test tubes were cut open and emptied into beakers, then separated into residue (meat particles) and supernatant (liquid) via paper filtration into 50 mL conical tubes for collection and subsequent analysis for residual nitrite (supernatant) and cured pigment formation/nitrosylation (meat residue).
# Nitrosylation and residual nitrite analyses was performed under reduced light to avoid loss of pigmentation. L-arginine treated test tube pork sausage averaged 53.12 to 72.30 ppm of residual nitrite in the cooked meat pellet with percent nitrosylation ranging from 33 to 60 percent (Table 13). The brine was formulated to deliver 1500 ppm ingoing L-arginine at 25% absorption into the meat after two hours of immersion in the brine solution.
# [3] = pH after immersion, pre- and post-rigor pork semimembranosus muscle (Example 13); type: physicochemical
# Method for eNOS system: Two (N=2) of these pork loins were cut into four sections (˜1 kg; 8 pieces total) and weighed prior to injection with the test brine solution (Table 8). Initial muscle pH was prior to injection before injection (10, 15, 20 or 25%) as well as brine pH was measured (Table 9). The test brine was manufactured for a targeted 25% injection level (Table 8) and was prepared on the day of manufacture to simulate a commercial ham cure containing water, sodium tri-polyphosphate, salt (NaCl), L-arginine, sodium erythorbate (NaE) and sugar. […] Brine percentages were calculated to simulate ingoing arginine of test tube trials (5569 ingoing arginine, 547 ppm NaE, 0.9% NaCl).
# Samples were weighed before and after injection to ensure pickup percentage as close to the target weights of 10, 15, 20, and 25% pickup. Samples were vacuum packaged and held for two hours before thermal processing to simulate previous laboratory test tube trials.
# After cooking and stabilization at room temperature, loin sections were sliced perpendicular to the long axis of the muscle fibers to determine if any nitrosylation (nitric oxide (NO) bound to myoglobin) occurred, resulting in the characteristic cured (pink) color. […] Based on an ingoing L-arginine brine concentration of 5545 ppm, there would be approximately 554, 830 and 1110 and 1385 ppm of ingoing L-arginine at 10, 15, 20 and 25% injection levels, respectively.
smiles,measurement,setting,value
N=C(N)NCCC[C@H](N)C(=O)O [L-arginine],pH after 2 hours of sample immersion,"[1]; 2 mM L-arginine, cooked",5.88^a
same,pH after 2 hours of sample immersion,"[1]; 2 mM L-arginine, raw",5.84^a
same,pH after 2 hours of sample immersion,"[1]; 4 mM L-arginine, cooked",5.86^a
same,pH after 2 hours of sample immersion,"[1]; 4 mM L-arginine, raw",5.85^a
same,pH after 2 hours of sample immersion,"[1]; 8 mM L-arginine, cooked",5.87^a
same,pH after 2 hours of sample immersion,"[1]; 8 mM L-arginine, raw",5.83^a
same,pH after 2 hours of sample immersion,"[1]; 16 mM L-arginine, cooked",5.94^a
same,pH after 2 hours of sample immersion,"[1]; 16 mM L-arginine, raw",5.88^a
same,pH after 2 hours of sample immersion,"[1]; 32 mM L-arginine, cooked",6.05^a
same,pH after 2 hours of sample immersion,"[1]; 32 mM L-arginine, raw",6.01^a
same,sample pH after the immersion phase,"[1]; range over raw and cooked, 0-32 mM",5.83-6.05
same,Nitrosylation,[2]; 10% L-arginine brine,33.71^ab %
same,NO-Heme,[2]; 10% L-arginine brine,7.63^bc ppm
same,Total Heme,[2]; 10% L-arginine brine,22.66^a ppm
same,Nitrosylation,[2]; 15% L-arginine brine,45.19^a %
same,NO-Heme,[2]; 15% L-arginine brine,8.70^b ppm
same,Total Heme,[2]; 15% L-arginine brine,19.26^a ppm
same,Nitrosylation,[2]; 20% L-arginine brine,36.99^ab %
same,NO-Heme,[2]; 20% L-arginine brine,8.31^b ppm
same,Total Heme,[2]; 20% L-arginine brine,22.66^a ppm
same,Nitrosylation,[2]; 25% L-arginine brine,60.13^a %
same,NO-Heme,[2]; 25% L-arginine brine,16.24^a ppm
same,Total Heme,[2]; 25% L-arginine brine,28.56^a ppm
same,percent nitrosylation,[2]; range over brine additions 10-25%,33 to 60%
same,pH after 2 hours of sample immersion,"[3]; 2 mM L-arginine, post rigor cooked",5.77^a
same,pH after 2 hours of sample immersion,"[3]; 2 mM L-arginine, post rigor raw",5.52^a
same,pH after 2 hours of sample immersion,"[3]; 2 mM L-arginine, pre-rigor cooked",6.03^a
same,pH after 2 hours of sample immersion,"[3]; 2 mM L-arginine, pre-rigor raw",5.94^a
same,pH after 2 hours of sample immersion,"[3]; 4 mM L-arginine, post rigor cooked",5.75^a
same,pH after 2 hours of sample immersion,"[3]; 4 mM L-arginine, post rigor raw",5.52^a
same,pH after 2 hours of sample immersion,"[3]; 4 mM L-arginine, pre-rigor cooked",6.01^a
same,pH after 2 hours of sample immersion,"[3]; 4 mM L-arginine, pre-rigor raw",6.04^a
same,pH after 2 hours of sample immersion,"[3]; 8 mM L-arginine, post rigor cooked",5.66^a
same,pH after 2 hours of sample immersion,"[3]; 8 mM L-arginine, post rigor raw",5.53^a
same,pH after 2 hours of sample immersion,"[3]; 8 mM L-arginine, pre-rigor cooked",5.99^a
same,pH after 2 hours of sample immersion,"[3]; 8 mM L-arginine, pre-rigor raw",5.93^a
same,pH after 2 hours of sample immersion,"[3]; 16 mM L-arginine, post rigor cooked",5.75^a
same,pH after 2 hours of sample immersion,"[3]; 16 mM L-arginine, post rigor raw",5.53^a
same,pH after 2 hours of sample immersion,"[3]; 16 mM L-arginine, pre-rigor cooked",6.00^a
same,pH after 2 hours of sample immersion,"[3]; 16 mM L-arginine, pre-rigor raw",5.91^a
same,pH after 2 hours of sample immersion,"[3]; 32 mM L-arginine, post rigor cooked",5.76^a
same,pH after 2 hours of sample immersion,"[3]; 32 mM L-arginine, post rigor raw",5.56^a
same,pH after 2 hours of sample immersion,"[3]; 32 mM L-arginine, pre-rigor cooked",5.97^a
same,pH after 2 hours of sample immersion,"[3]; 32 mM L-arginine, pre-rigor raw",5.93^a
same,sample pH after the immersion phase,"[3]; range over pre- and post-rigor, raw and cooked, 0-32 mM",5.51-6.04
same,Injected Loin pH,eNOS system; 10% injection of test brine (Table 8),7.15 and 7.12
same,Injected Loin pH,eNOS system; 15% injection of test brine (Table 8),7.09 and 7.08
same,Injected Loin pH,eNOS system; 20% injection of test brine (Table 8),7.03 and 7.14
same,Injected Loin pH,eNOS system; 25% injection of test brine (Table 8),7.18 and 7.09
same,increase of muscle pH,eNOS system; after injection of test brine with sodium tri-polyphosphate,~2.0 pH units
same,cured color formation after cooking,"eNOS system; pork loin sections injected 10, 15, 20 or 25%, held two hours, cooked to 145° F.",no observable cured color formation
same,Brine pH,"eNOS system; test brine of Table 8: L-arginine 5545.41 ppm, with sodium tri-polyphosphate, salt, sugar, sodium erythorbate",10.55
